{
  "source": "paper PMC8581430",
  "about": "“Peptide ligands targeting FGF receptors promote recovery from dorsal root crush injury via AKT/mTOR signaling” (Theranostics, 2021)",
  "system": "ERK1/2 (phosphorylated) in DRG explants",
  "assay": "Western blot of phosphorylated ERK1/2 in DRG explants",
  "assay_type": "cell-based, rat",
  "settings": "CH02 20 μM + BGJ398 2 μM, 4 h, n = 3",
  "text": "Figure 6 Phosphoproteomic profiling of the intracellular signaling pathway used by CH02 for augmenting nerve regeneration. (A) GO biological process analysis of proteins corresponding to differentially expressed phosphorylated peptides. Ordinates indicate the enriched GO terms; abscissae represent the gene ratio; size of the dots indicates the number of proteins enriched in this biological process. (B) KEGG pathway analysis of proteins corresponding to differentially expressed phosphorylated peptides. Ordinates indicate the enriched pathway term; abscissae represent the gene ratio; size of the dots indicates number of proteins enriched in this pathway. […] (D-E) Quantification of p-ERK1/2 and p-AKT expression levels. n = 3 independent experiments. Relative protein expression level was quantified after normalization to the corresponding total proteins. […] (G-H) Quantification of p-ERK1/2 and p-AKT expression levels. n = 3 independent experiments. Relative protein expression level was quantified after normalization to the corresponding total proteins. […] The axon is shown in fluorescence (NF200) images. […] For quantification of axon length, neurons were immunostained using an antibody against β-tubulin. […] (N) Quantification of TUNEL-positive neurons (M) using ImageJ software (n = 5 for each condition; ***p < 0.001 by one-way ANOVA with Dunnett's test; mean ± SEM). […]",
  "data": [
    {"compound": "CCN1CCN(c2ccc(Nc3cc(N(C)C(=O)Nc4c(Cl)c(OC)cc(OC)c4Cl)ncn3)cc2)CC1", "note": "[BGJ398]", "values": [
      {"measurement": "effect of inhibitor on CH02-upregulated phosphorylated ERK", "value": "counteracted CH02 effect on upregulating phosphorylated AKT and ERK levels"}
    ]}
  ]
}
